# Key:
# [1] = molecular target: T1, TxtE (Streptomyces scabiei, UniProt C9ZDC6); assay: UV-Vis difference spectroscopy (Type I shift) titration of Trp analogues to 1.5 µM purified P450 in 25 mM Tris-HCl, pH 8.0, fitted to Michaelis-Menten type equation; at least three repeats.; type: binding; conditions: n = 3
# T1 construct: wild type, pET28b construct, Ni-NTA purified
# T1 sequence (C9ZDC6 1-406): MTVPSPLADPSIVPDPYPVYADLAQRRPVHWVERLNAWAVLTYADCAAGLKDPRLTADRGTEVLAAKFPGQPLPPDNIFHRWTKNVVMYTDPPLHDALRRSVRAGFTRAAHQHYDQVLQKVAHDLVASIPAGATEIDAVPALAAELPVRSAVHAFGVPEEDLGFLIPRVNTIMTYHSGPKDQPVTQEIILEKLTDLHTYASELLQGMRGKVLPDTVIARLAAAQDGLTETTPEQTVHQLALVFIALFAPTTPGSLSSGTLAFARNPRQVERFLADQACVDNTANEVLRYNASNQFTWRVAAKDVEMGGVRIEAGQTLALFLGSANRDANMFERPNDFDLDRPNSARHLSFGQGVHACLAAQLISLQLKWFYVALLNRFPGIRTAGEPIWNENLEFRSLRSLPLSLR
# Experimental: (§1) The ferric heme of enzymes was then saturated by bubbling carbon monoxide (Airgas) and the spectra of the saturated enzyme solutions were recorded. Sodium dithionite solution (30 μL, 0.5 M) was then added to reduce ferric ion, and reduced spectra were taken subsequently. CO reduced difference spectra of all P450s were created by […]. Data were further analyzed by Excel. […] The changes in absorbance (ΔA) were determined by subtracting the absorbance at ~420 nm from that at ~390 nm. Data were then fitted to the equation of ΔA = ΔAmax[L]/(Kd + [L]) using GraphPad Prism 4.
# (§2) in 25 mM Tris-HCl, pH 8.0. All experiments were repeated at least three times. Data
# (§3) were fitted to the Michaelis-Menten equation.
# [2] = molecular target: T2, TB14 (UniProt C9ZDC6+P14779); assay: Binding affinities of Trp analogues toward TB14 (spectral shift); conditions: for Kd: read-out: TB14 Kd, 1.5 µM enzyme, 25 mM Tris-HCl pH 8.0
# T2 construct: BM3R: reductase domain of CYP102A1 (P450BM3); made in house; host or cells: E. coli BL21-GOLD (DE3), pET28b-TxtE-BM3R
# Experimental: as §1
# (§4) in 25 mM Tris-HCl, pH 8.0. All experiments were repeated at least three times. […]
# [3] = molecular target: T2, TB14; assay: Nitration of Trp analogues by TB14 (HPLC, 45 min); type: biochemical; conditions: for nitrated a significant amount by TB14: after 45 mins, 0.5 mM substrate, 1.5 µM P450
# Experimental: (§5) The reactions were prepared as described previously and incubated at 20 °C, 300 rpm for 45 minutes. All experiments were repeated at least three times.
# (§6) After centrifugation, 10 μl solutions were analyzed by HPLC. […] All reactions were independently repeated at least three times. In TTN and coupling efficiency studies, 0.5 µM P450s and 0.5 mM substrate were used. […] All experiments were performed at least in triplication.
# [4] = molecular target: T2, TB14; assay: Scaled-up TB14 nitration of 4-Me-DL-Trp (Marfey's derivatization, NMR); type: biochemical; conditions: scaled-up reaction with 4-Me-DL-Trp
# Experimental: The reactions in a 200-ml flask were incubated at 20 °C, 250 rpm overnight, and then terminated by 20 mL methanol or acidification to pH 1.0 with 6 M HCl. After centrifugation, the supernatants were concentrated in vacuo and then freeze-dried. The products were redissolved in 3 ml methanol for semi-preparation[22].
# 4-Me-Trp and nitrated 4-Me-Trp from enzyme reactions were reacted with Marfey’s reagent following manufacture manual (Thermo Scientific). Derivatized products were analyzed by LC-MS with A SHIMADZU Prominence UPLC system fitted with a Waters SymmetryShieldTM RP-C18 column (3.5 µm, 4.6 × 100 mm) and a Linear Ion Trap Quadrupole LC/MS/MS Mass Spectrometer system. The flow rate was 0.5 mL/min. The column was eluted with 90% solvent A (0.05 M triethylammonium acetate, pH 3.0), 10% solvent B (acetonitrile) for 2 min and then with a linear gradient of 10–50% solvent B for 60 min. The column was then cleaned by 50% solvent B for 5 min followed by a re-equilibration with 10% solvent B for 2 min. For MS detection, the turbo spray conditions used were: curtain gas: 30 psi; ion spray voltage: 5000 V; temperature: 550 °C; ion source gas 1: 30 psi; ion source gas 2: 20 psi.
# [5] = molecular target: T3, TxtE (Streptomyces scabiei, UniProt C9ZDC6); type: biochemical, Streptomyces scabies; parameters: made in house; conditions: for nitrated a significant amount by TxtE: after 45 mins, 0.5 mM substrate, 1.5 µM P450
# Experimental: as §5, §6
# [6] = molecular target: T4, TB14 (UniProt C9ZDC6); assay: Binding affinities of Trp analogues toward TB14 (spectral shift); conditions: 1.5 µM enzyme, 25 mM Tris-HCl pH 8.0
# T4 construct: BM3R: reductase domain of CYP102A1 (P450BM3); made in house; host or cells: E. coli BL21-GOLD (DE3), pET28b-TxtE-BM3R
# Experimental: as §1, §4
# [7] = molecular target: T3, TxtE; assay: biochemical; type: binding, Streptomyces scabies; parameters: made in house; host or cells: E. coli BL21-GOLD (DE3), pET28b
# Experimental: as §1, §2, §3
# [8] = molecular target: TB19; assay: UV-Vis difference spectroscopy (Type I shift, ΔA ~390 minus ~420 nm) titration of Trp to 1.5 µM purified P450 in 25 mM Tris-HCl, pH 8.0, hyperbolic fit; at least three repeats.; type: binding; conditions: n = 3
# Experimental: (§7) We next determined coupling efficiency to evaluate the extent to which linker length and structural swapping may affect electron transfer compatibility during nitration reaction (Table 1). […] Additionally, we determined total turnover number (TTN) as nmol product per nmol P450 in all reactions (Table 1).
# as §1
# [9] = molecular target: TB17; assay: as above; type: binding; conditions: n = 3
# Experimental: as §7, §1
# [10] = molecular target: TB22; assay: as above; type: binding; conditions: n = 3
# Experimental: as §7, §1
# [11] = molecular target: TB13-Q; assay: as above; type: binding; conditions: n = 3
# Experimental: as §7, §1
# [12] = molecular target: TB24; assay: as above; type: binding; conditions: n = 3
# Experimental: as §7, §1
# [13] = molecular target: TB15; assay: as above; type: binding; conditions: n = 3
# Experimental: as §7, §1
# [14] = molecular target: TB27; assay: as above; type: binding; conditions: n = 3
# Experimental: as §7, §1
# [15] = molecular target: TB16; assay: as above; type: binding; conditions: n = 3
# Experimental: as §7, §1
# [16] = molecular target: TB11; assay: as above; type: binding; conditions: n = 3
# Experimental: as §7, §1
# [17] = molecular target: TB13; assay: as above; type: binding; conditions: n = 3
# Experimental: as §7, §1
# [18] = molecular target: TB12; assay: as above; type: binding; conditions: n = 3
# Experimental: as §7, §1
# [19] = molecular target: TB13S; assay: as above; type: binding; conditions: n = 3
# Experimental: as §7, §1
# [20] = read-out: TxtE Kd (µM), TB14 Kd
compound,measurement,setting,value
"O=C(O)C1Cc2c([nH]c3ccccc23)CN1 (stereo not drawn) [2,3,4,9-tetrahydro-1H-β-carboline-3-carboxylate]",Kd,[1]; [20],580 µM
COc1ccc2[nH]cc(CC(N)C(=O)O)c2c1 (centres unmarked) [5-MeO-Trp],Kd,[2],26 ± 2 µM
same,nitrated a significant amount by TB14,[3],not
N[C@@H](Cc1c[nH]c2ccc(O)cc12)C(=O)O [5-OH-L-Trp],Kd,[2],450 ± 16 µM
Cc1cccc2[nH]cc(C[C@H](N)C(=O)O)c12 [4-Me-L-Trp],consumption of substrate in the TB14 reaction,[4],~ 85%
"N[C@@H](Cc1c[nH]c2ccc(O)cc12)C(=O)O [5-OH-L-Trp, 5-hydroxy-L-tryptophan]",Kd,[1]; [20],340 µM
"NC(Cc1c[nH]c2cccc(F)c12)C(=O)O (racemic) [4-F-Trp, 4-fluoro-DL-tryptophan]",Kd,[1],190 µM
"Cc1cccc2[nH]cc(CC(N)C(=O)O)c12 (racemic) [4-Me-Trp, 4-methyl-DL-tryptophan]",Kd,[1],10 µM
"Cc1cccc2c(CC(N)C(=O)O)c[nH]c12 (racemic) [7-Me-Trp, 7-methyl-DL-tryptophan]",Kd,[1]; [20],13 µM
"Cc1cccc2[nH]cc(CC(N)C(=O)O)c12 (racemic) [4-Me-Trp, 4-Me-DL-Tryptophan]","binding affinity, times higher than 4-F-DL-Trp",[2]; from Table S1,13 times
same,Kd,[2],14 ± 1 µM
same,nitrated a significant amount by TxtE,[5],nitrated a significant amount
same,"nitration by TB14, times favoured over 4-F-DL-Trp","[3]; 45 min, Fig. 3",about 8 times
same,nitrated a significant amount by TB14,[3],nitrated a significant amount
NCCc1c[nH]c2ccc(O)cc12 [Serotonin],Kd,[6],310 ± 39 µM
same,Kd,[7],320 ± 31 µM
NCCc1c[nH]c2ccccc12 [Tryptamine],Kd,[6],60 ± 8 µM
same,Kd,[7],68 ± 6 µM
N[C@@H](Cc1c[nH]c2cc(F)ccc12)C(=O)O [6-F-Trp],Kd,[2],65 ± 5 µM
same,nitrated a significant amount by TxtE,[5],nitrated a significant amount
same,nitrated a significant amount by TB14,[3],nitrated a significant amount
c1ccc2[nH]ccc2c1 [indole],interaction with TB14 in spectroscopic analysis (Type I spectral shift),[2],no detectable level of interaction
same,interaction with TxtE in spectroscopic analysis,[7],no detectable level of interaction
NC(Cc1c[nH]c2cccc(F)c12)C(=O)O (centres unmarked) [4-F-Trp],Kd,[2],180 ± 13 µM
same,nitrated a significant amount by TB14,[3],not
N[C@H](CO)Cc1c[nH]c2ccccc12 [L-tryptophanol],Kd,[2],280 ± 43 µM
same,Kd,[1]; [20],220 µM
O=C(O)C(=O)Cc1c[nH]c2ccccc12 [Indole-3-pyruvic acid],Kd,[6],480 ± 32 µM
same,Kd,[7],390 ± 43 µM
"Cc1ccc2[nH]cc(CC(N)C(=O)O)c2c1 (racemic) [5-Me-Trp, 5-methyl-DL-tryptophan]",Kd,[1]; [20],35 µM
Cc1ccc2[nH]cc(CC(N)C(=O)O)c2c1 (centres unmarked) [5-Me-Trp],Kd,[2],30 ± 1 µM
same,nitrated a significant amount by TxtE,[5],nitrated a significant amount
same,nitrated a significant amount by TB14,[3],nitrated a significant amount
"N[C@@H](Cc1c[nH]c2ccccc12)C(=O)O [Trp, L-tryptophan]",Kd,[8],16 ± 0.8 µM
same,Kd,[9],15.5 ± 0.6 µM
same,Kd,[10],27.1 ± 1.3 µM
same,Kd,[11],21.5 ± 0.8 µM
same,Kd,[12],14.9 ± 0.3 µM
same,Kd,[13],21.4 ± 0.9 µM
same,Kd,[14],16.2 ± 1.1 µM
same,Kd,[15],18.9 ± 1 µM
same,Kd,[16],16.2 ± 0.6 µM
same,Kd,[17],21.3 ± 0.4 µM
same,Kd,[18],22.3 ± 1.4 µM
same,Kd,[19],19.3 ± 0.6 µM
"NC(Cc1c[nH]c2cc(F)ccc12)C(=O)O (racemic) [6-F-Trp, 6-fluoro-DL-tryptophan]",Kd,[1],73 µM
"N[C@@H](Cc1c[nH]c2ccc(F)cc12)C(=O)O [5-F-L-Trp, 5-fluoro-L-tryptophan]",Kd,[1],84 µM
Cc1cccc2c(CC(N)C(=O)O)c[nH]c12 (centres unmarked) [7-Me-Trp],Kd,[2],11 ± 1 µM
same,nitrated a significant amount by TB14,[3],not
N[C@@H](Cc1c[nH]c2ncccc12)C(=O)O [7-Azatryptophan],Kd,[6],26 ± 1 µM
same,Kd,[7],17 ± 1 µM
CC(N)(Cc1c[nH]c2ccccc12)C(=O)O (stereo not drawn) [α-Me-Trp],Kd,[2],95 ± 9 µM
same,Kd,"[7]; read-out: TxtE Kd, 1.5 µM enzyme, 25 mM Tris-HCl pH 8.0",100 ± 4 µM
same,nitrated a significant amount by TB14,[3],not
N[C@H](Cc1c[nH]c2ccccc12)C(=O)O [D-Trp],Kd,[2],470 ± 25 µM
"O=C(O)C1Cc2c([nH]c3ccccc23)CN1 (stereo not drawn) [2,3,4,9-Tetrahydro-1H-β-carboline-3-carboxynate]",Kd,[2],730 ± 86 µM
N[C@@H](Cc1c[nH]c2ccc(F)cc12)C(=O)O [5-F-L-Trp],Kd,[2],78 ± 6 µM
same,substrate ranking in the TxtE reaction,[5]; 45 min,best substrate of TxtE
same,nitrated a significant amount by TxtE,[5],nitrated a significant amount
same,substrate ranking in the TB14 reaction,[3]; 45 min,comparable to Trp as the best
same,nitrated a significant amount by TB14,[3],nitrated a significant amount
"N[C@H](Cc1c[nH]c2ccccc12)C(=O)O [D-Trp, D-tryptophan]",Kd,[1]; [20],430 µM
"COc1ccc2[nH]cc(CC(N)C(=O)O)c2c1 (racemic) [5-MeO-Trp, 5-methoxy-DL-tryptophan]",Kd,[1]; [20],29 µM
"N[C@@H](Cc1c[nH]c2ccccc12)C(=O)O [L-Trp, L-tryptophan]",Kd,[6],17 ± 1 µM
same,Kd,[7],25 ± 1 µM

# Reference: PMC5429796, “Engineered P450 biocatalysts show improved activity and regio-promiscuity in aromatic nitration” (Scientific Reports, 2017)
